Tests used:
Theiler = assay: CPE inhibition in mammalian cell culture, Theiler; format: cell-based; conditions: Conc. 10 μM
Enterovirus strain 71 = assay: CPE inhibition in mammalian cell culture, EV71; format: cell-based; parameters: inhibition: dose or concentration left out as unconfirmed
[1] = tested on: Human parechovirus strain 1; assay: CPE inhibition in mammalian cell culture, HPeV-1; format: cell-based; conditions: Parechovirus A; Conc. 10 µM; read-out: antiviral effect, HPeV-1
[2] = Sprague Dawley rats, 250 and 750 mg/kg body weight/day for 7 days
[3] = tested on: encephalomyocarditis virus; assay: CPE inhibition in mammalian cell culture, EMCV; format: cell-based; parameters: inhibition: dose or concentration left out as unconfirmed; conditions: Cardiovirus A; Conc.; read-out: antiviral effect, EMCV
[4] = tested on: Coxsackie B3 virus, Nancy strain; assay: Anti-viral efficacy against Coxsackie virus in a neutropenic mouse model; format: in vivo, Male BALB/c mice; conditions: neutropenic BALB/c mice, Coxsackie B3 i.p., 200 mg/kg once daily per orally from day 1 or day 3
Description: The FIGURE is a diagram showing the number of surviving animals as a function of the number of days after infections with Coxsackie B3 virus, in mice treated with the compound of Ex. 9, 200 mg/kg once daily per orally starting on day 1 (group 1) or on day 3 (group 2), and in mice treated with vehicle only (0.4% Tween 80, 2% glycerol and 15% β-hydroxypropyl cyclodextrin).
Evaluation of Anti-Viral Efficacy Against Coxsackie Virus in a Neutropenic Mouse Model Test System Male BALB/c mice, weighing 22-26 grams were used with 4 animals/group. Neutropenic induction: Cyclophosphamide Challenge organism: Coxsackie (human origin) virus CVB3 Route of infection: Intraperitoneal Route of administration: per oral End point: Cumulative survival
All experimental procedures involving animals were performed according to protocols approved by the Institutional Animal Ethics Committee of Anthem Biosciences. The mice, male BALB/c mice were housed 4 animals per cage and allowed access to feed and water ad libitum under controlled conditions. Mice were acclimatized for 7 days prior to the study. The animals were observed daily for general health during this period. […]
The animals were observed daily during the study period for signs of mortality, morbidity (paralysis) and signs of acute toxicity. Abnormal clinical signs were recorded if observed.

[5] = tested on: coxsackie B virus strain 2; assay: CPE inhibition in mammalian cell culture, Cox-B2; format: cell-based; conditions: read-out: antiviral effect, B2
[6] = tested on: coxsackie B virus strain 4; assay: CPE inhibition in mammalian cell culture, Cox-B4; format: cell-based; conditions: read-out: antiviral effect, B4
Porcine Tescho virus = assay: microbe, parasite or virus in culture; format: cell-based; parameters: dose or concentration left out as unconfirmed; conditions: Conc.; read-out: antiviral effect, PTV
Ljungan virus strain 012 = assay: CPE inhibition in mammalian cell culture, LV012; format: cell-based; conditions: Parechovirus B; Conc. 10 µM; read-out: antiviral effect, LV012
Ljungan virus strain 145 = assay: CPE inhibition in mammalian cell culture, LV145; format: cell-based; parameters: inhibition: dose or concentration left out as unconfirmed; conditions: Parechovirus B; Conc.; read-out: antiviral effect, LV145
[7] = tested on: coxsackie B virus strain 1; assay: CPE inhibition in mammalian cell culture, Cox-B1; format: cell-based; conditions: read-out: antiviral effect, B1
[8] = female Sprague Dawley rats, single dose
polio virus strain 1 = assay: microbe, parasite or virus in culture; format: cell-based; conditions: read-out: antiviral effect, Polio 1
[9] = tested on: coxsackie B virus strain 5; assay: CPE inhibition in mammalian cell culture, Cox-B5; format: cell-based; conditions: read-out: antiviral effect, B5
Enterovirus strain 30 = assay: CPE inhibition in mammalian cell culture, EV30; format: cell-based; conditions: Conc. 10 µM, read-out: antiviral effect, EV30

## Cc1cc(NCc2ccc(F)cc2)n2nc(C)c(-c3ccc(C(F)(F)F)cc3)c2n1 [Ex. 104, N-[(4-fluorophenyl)methyl]-2,5-dimethyl-3-[4-(trifluoromethyl)phenyl]pyrazolo[1,5-a]pyrimidin-7-amine]
Theiler
  inhibition at 10 µM: 59%

## COc1ccc(-c2c(C)nn3c(NCc4ccc(F)cc4)cc(C)nc23)cc1OC [Ex. 9, 3-(3,4-dimethoxyphenyl)-N-[(4-fluorophenyl)methyl]-2,5-dimethyl-pyrazolo[1,5-a]pyrimidin-7-amine]
Enterovirus strain 71; Conc., read-out: antiviral effect, EV71
  inhibition: 16%
Enterovirus strain 71; EV71, Conc. 0.25 μM
  inhibition at 0.25 µM: 93%
[1]
  inhibition at 10 µM: 19%
BALB/C mice, 200 and 400 mg/kg body weight/day for 7 days
  adverse clinical signs or mortality: did not reveal any adverse clinical signs or mortality
mouse, in vivo, po
  No Observed Adverse Effect Level (NOAEL): 400 mg/kg body weight/day
[2]
  adverse clinical signs and mortality: adverse clinical signs in both sexes at 750 mg/kg and mortality in one female at 750 mg/kg
[3]
  inhibition: 14%
[4]
  Cumulative survival: has an antiviral effect in vivo and can extend the life of the animals
[5]
  inhibition at 10000 µM: 76%
[6]
  inhibition at 10000 µM: 48%
Porcine Tescho virus
  inhibition: 23%
Ljungan virus strain 012
  inhibition at 10 µM: 18%
Ljungan virus strain 145
  inhibition: 59%
[7]
  inhibition at 10000 µM: 53%
[8]
  maximum tolerable dose: > 2000 mg/kg body weight
Polio virus strain 1
  inhibition at 10000 µM: 91%
[9]
  inhibition at 10000 µM: 73%
Enterovirus strain 30
  inhibition at 10 µM: 35%

— patent publication US9963455B2, “Pyrazolo[1,5-a]pyrimidines as antiviral compounds” (Curovir AB, priority 2014, dated 2018)
